Assay results reported in patent US20070128217A1 (priority 2003, published 2007).

Legend:
[1] = system: antibodies in sera from SARS patients (sera 1a, 1b, 2, 6, 37, 62, London, SARS-yellow, SARS-green); assay type: binding, human; set-up: Binding of serum 6 to linear peptides of protein X1 of SARS-CoV Urbani / Binding of serum 37 to linear peptides of protein X1 of SARS-CoV Urbani / Binding of serum 6 to looped/cyclic peptide (PEPSCAN-ELISA) / Binding of serum 37 to looped/cyclic peptide (PEPSCAN-ELISA) / Binding of serum 37 to looped/cyclic peptides of protein X1 of SARS-CoV Urbani / Binding of serum 6 to linear peptides of protein X2 / Binding of serum 37 to linear peptides of protein X2 / Binding of serum 37 to looped/cyclic peptides of protein X2 of SARS-CoV Urbani / Binding of serum 6 to linear peptides of protein M of SARS-CoV Urbani / Binding of serum 37 to linear peptides of protein M of SARS-CoV Urbani / Binding of serum 6 to looped/cyclic peptides of protein M of SARS-CoV Urbani / Binding of serum 37 to looped/cyclic peptides of protein M of SARS-CoV Urbani / Binding of serum 6 to linear peptides of protein X3 of SARS-CoV Urbani / Binding of serum 37 to linear peptides of protein X3 of SARS-CoV Urbani / Binding of serum 37 to looped/cyclic peptides of protein X3 of SARS-CoV Urbani / Binding of serum 6 to linear peptides of protein X4 of SARS-CoV Urbani / Binding of serum 37 to linear peptides of protein X4 of SARS-CoV Urbani / Binding of serum 37 to looped/cyclic peptides of protein X4 of SARS-CoV Urbani / Binding of serum 6 to linear peptides of protein X5 of SARS-CoV Urbani / Binding of serum 37 to linear peptides of protein X5 of SARS-CoV Urbani / Binding of serum 37 to looped/cyclic peptides of protein X5 of SARS-CoV Urbani / Binding of serum 6 to linear peptides of protein N of SARS-CoV Urbani / Binding of serum 37 to linear peptides of protein N of SARS-CoV Urbani / Binding of serum 6 to linear peptide (PEPSCAN-ELISA) / Binding of serum 1a to looped/cyclic peptides of protein N of SARS-CoV Urbani / Binding of serum 1b to looped/cyclic peptides of protein N of SARS-CoV Urbani / Binding of serum 2 to looped/cyclic peptides of protein N of SARS-CoV Urbani / Binding of serum 6 to looped/cyclic peptides of protein N of SARS-CoV Urbani / Binding of serum 37 to looped/cyclic peptides of protein N of SARS-CoV Urbani / Binding of serum 62 to looped/cyclic peptides of protein N of SARS-CoV Urbani / Binding of serum London to looped/cyclic peptides of protein N of SARS-CoV Urbani / Binding of serum SARS-green to looped/cyclic peptides of protein N of SARS-CoV Urbani: unit not given here
[2] = system: rabbit serum obtained by immunizing a rabbit with the SARS-CoV strain Frankfurt 1; assay type: binding; set-up: Binding of a rabbit serum to linear peptides / Binding of a rabbit serum to looped peptides / Rabbit serum linear peptides / Rabbit serum looped peptides / Binding of a rabbit serum to linear peptides of protein N of SARS-CoV Urbani (Rabbit serum linear peptides) / Binding of a rabbit serum to looped/cyclic peptides of protein N of SARS-CoV Urbani (Rabbit serum looped peptides): unit not given here

Sequence | Binding of serum 1a to linear peptides of protein X1 of SARS-CoV Urbani [1] | Binding of serum 1a to looped/cyclic peptide (PEPSCAN-ELISA) [1] | Binding of serum 1b to linear peptides of protein X1 of SARS-CoV Urbani [1] | Binding of serum 1b to looped/cyclic peptide (PEPSCAN-ELISA) [1] | Binding of serum 2 to linear peptides of protein X1 of SARS-CoV Urbani [1] | Binding of serum 2 to looped/cyclic peptide (PEPSCAN-ELISA) [1] | Binding of serum 6 to linear peptides of protein X1 of SARS-CoV Urbani [1] | Binding of serum 6 to looped/cyclic peptide (PEPSCAN-ELISA) [1] | Binding of serum 37 to linear peptides of protein X1 of SARS-CoV Urbani [1] | Binding of serum 37 to looped/cyclic peptide (PEPSCAN-ELISA) [1] | Binding of serum 62 to linear peptides of protein X1 of SARS-CoV Urbani [1] | Binding of serum 62 to looped/cyclic peptide (PEPSCAN-ELISA) [1] | Binding of serum London to linear peptides of protein X1 of SARS-CoV Urbani [1] | Binding of serum London to looped/cyclic peptide (PEPSCAN-ELISA) [1] | Binding of serum SARS-green to linear peptides of protein X1 of SARS-CoV Urbani [1] | Binding of serum SARS-green to looped/cyclic peptide (PEPSCAN-ELISA) [1] | Binding of serum SARS-yellow to linear peptides of protein X1 of SARS-CoV Urbani [1] | Binding of serum SARS-yellow to looped/cyclic peptide (PEPSCAN-ELISA) [1] | Recognition of the peptide by the rabbit serum [2] | further results
LLIQQWIQFMMSRRR |  |  |  |  |  |  |  |  |  |  |  |  |  |  |  |  |  |  |  | Binding of serum 1a to linear peptides of protein X2 [1]: 0.7; Binding of serum 1a to looped/cyclic peptides of protein X2 of SARS-CoV Urbani [1]: 0.5; Binding of serum 1b to linear peptides of protein X2 [1]: 0.5; Binding of serum 1b to looped/cyclic peptides of protein X2 of SARS-CoV Urbani [1]: 0.5; Binding of serum 2 to linear peptides of protein X2 [1]: 0.5; Binding of serum 2 to looped/cyclic peptides of protein X2 of SARS-CoV Urbani [1]: 0.7; Binding of serum 6 to linear peptides of protein X2 [1]: 0.5; Binding of serum 6 to looped/cyclic peptides of protein X2 of SARS-CoV Urbani [1]: 0.3; Binding of serum 37 to linear peptides of protein X2 [1]: 0.6; Binding of serum 37 to looped/cyclic peptides of protein X2 of SARS-CoV Urbani [1]: 0.5; Binding of serum 62 to linear peptides of protein X2 [1]: 0.6; Binding of serum 62 to looped/cyclic peptides of protein X2 of SARS-CoV Urbani [1]: 0.7; Binding of serum London to linear peptides of protein X2 [1]: 0.4; Binding of serum London to looped/cyclic peptides of protein X2 of SARS-CoV Urbani [1]: 0.2; Binding of serum SARS-green to linear peptides of protein X2 [1]: 0.5; Binding of serum SARS-green to looped/cyclic peptides of protein X2 of SARS-CoV Urbani [1]: 0.3; Binding of serum SARS-yellow to linear peptides of protein X2 [1]: 0.8; Binding of serum SARS-yellow to looped/cyclic peptides of protein X2 of SARS-CoV Urbani [1]: 0.4; Binding of a rabbit serum to linear peptides [2]: 0.5; Binding of a rabbit serum to looped peptides [2]: 0.6
RTLSYYKLGASQRVG |  |  |  |  |  |  |  |  |  |  |  |  |  |  |  |  |  |  |  | Binding of serum 1a to linear peptides of protein M of SARS-CoV Urbani [1]: 0.7; Binding of serum 1a to looped/cyclic peptides of protein M of SARS-CoV Urbani [1]: 0.8; Binding of serum 1b to linear peptides of protein M of SARS-CoV Urbani [1]: 0.6; Binding of serum 1b to looped/cyclic peptides of protein M of SARS-CoV Urbani [1]: 0.5; Binding of serum 2 to linear peptides of protein M of SARS-CoV Urbani [1]: 0.7; Binding of serum 2 to looped/cyclic peptides of protein M of SARS-CoV Urbani [1]: 0.7; Binding of serum 6 to linear peptides of protein M of SARS-CoV Urbani [1]: 0.8; Binding of serum 6 to looped/cyclic peptides of protein M of SARS-CoV Urbani [1]: 1.5; Binding of serum 37 to linear peptides of protein M of SARS-CoV Urbani [1]: 0.5; Binding of serum 62 to linear peptides of protein M of SARS-CoV Urbani [1]: 0.5; Binding of serum London to linear peptides of protein M of SARS-CoV Urbani [1]: 0.3; Binding of serum London to looped/cyclic peptides of protein M of SARS-CoV Urbani [1]: 1.0; Binding of serum SARS-green to linear peptides of protein M of SARS-CoV Urbani [1]: 0.5; Binding of serum SARS-green to looped/cyclic peptides of protein M of SARS-CoV Urbani [1]: 0.4; Binding of serum SARS-yellow to linear peptides of protein M of SARS-CoV Urbani [1]: 0.4; Binding of serum SARS-yellow to looped/cyclic peptides of protein M of SARS-CoV Urbani [1]: 0.8; Rabbit serum linear peptides [2]: 0.5; Rabbit serum looped peptides [2]: 1.0
FICNLLLLFVTIYSH | 0.6 | 0.5 | 0.6 | 0.3 | 0.6 | 0.4 | 0.4 | 0.2 | 0.5 | 0.5 | 0.5 | 0.5 | 0.3 | 0.2 | 0.2 | 0.3 | 0.4 | 0.5 |  | Binding of a rabbit serum to linear peptides [2]: 0.1; Binding of a rabbit serum to looped peptides [2]: 0.5
HRWHTMVQTCTPNVT |  |  |  |  |  |  |  |  |  |  |  |  |  |  |  |  |  |  |  | Binding of serum 1a to linear peptides of protein X5 of SARS-CoV Urbani [1]: 0.7; Binding of serum 1a to looped/cyclic peptides of protein X5 of SARS-CoV Urbani [1]: 0.6; Binding of serum 1b to linear peptides of protein X5 of SARS-CoV Urbani [1]: 0.6; Binding of serum 1b to looped/cyclic peptides of protein X5 of SARS-CoV Urbani [1]: 0.5; Binding of serum 2 to linear peptides of protein X5 of SARS-CoV Urbani [1]: 0.8; Binding of serum 2 to looped/cyclic peptides of protein X5 of SARS-CoV Urbani [1]: 0.5; Binding of serum 6 to linear peptides of protein X5 of SARS-CoV Urbani [1]: 0.5; Binding of serum 6 to looped/cyclic peptides of protein X5 of SARS-CoV Urbani [1]: 0.3; Binding of serum 37 to linear peptides of protein X5 of SARS-CoV Urbani [1]: 0.7; Binding of serum 37 to looped/cyclic peptides of protein X5 of SARS-CoV Urbani [1]: 0.3; Binding of serum 62 to linear peptides of protein X5 of SARS-CoV Urbani [1]: 0.8; Binding of serum 62 to looped/cyclic peptides of protein X5 of SARS-CoV Urbani [1]: 0.3; Binding of serum London to linear peptides of protein X5 of SARS-CoV Urbani [1]: 0.7; Binding of serum London to looped/cyclic peptides of protein X5 of SARS-CoV Urbani [1]: 0.1; Binding of serum SARS-green to linear peptides of protein X5 of SARS-CoV Urbani [1]: 0.5; Binding of serum SARS-green to looped/cyclic peptides of protein X5 of SARS-CoV Urbani [1]: 0.3; Binding of serum SARS-yellow to linear peptides of protein X5 of SARS-CoV Urbani [1]: 0.5; Binding of serum SARS-yellow to looped/cyclic peptides of protein X5 of SARS-CoV Urbani [1]: 0.2; Rabbit serum linear peptides [2]: 0.7; Rabbit serum looped peptides [2]: 0.3
VFQSATKIIALNKRW | 0.8 | 0.5 | 0.6 | 0.4 | 0.6 | 0.4 | 0.6 | 0.6 | 0.7 | 0.4 | 0.8 | 0.6 | 0.3 | 0.3 | 0.2 | 0.2 | 0.5 | 0.2 | recognized | 
SATKIIALNKRWQLA | 0.8 | 1.2 | 0.6 | 0.8 | 0.6 | 1.2 | 0.7 | 0.9 | 0.7 | 1.0 | 0.8 | 1.5 | 0.4 | 0.5 | 0.3 | 1.0 | 0.5 | 0.9 | recognized | 
TKIIALNKRWQLALY | 0.7 | 0.6 | 0.5 | 0.4 | 0.6 | 0.5 | 1.0 | 0.5 | 0.7 | 0.6 | 0.7 | 0.6 | 0.3 | 0.3 | 0.2 | 0.3 | 0.5 | 0.5 | recognized | 
